From the supplement of paper PMC4862054

Assays:
MDA-MB-468 [1] = details: 72 h
How it was run: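 The plates used were 384-well plates holding compound at 5 concentrations in 10-fold steps across a compound-specific 10,000-fold range, into which breast cancer cell lines were seeded in 20 µl suspension. Following 72 h incubation, CellTox Green fluorescence was read at 485/520 nm, and CellTiter-Glo luminescence was read after 10 min at room temperature. Normalisation on each plate used 0.1 % DMSO and a positive kill control. Dose-response curves gave the EC50, which was censored at the top concentration.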

BT-474 = assay: normalised viability (% of control), CellTiter-Blue; higher = more viable cells (about 100 = DMSO control); details: incubation time: 72 h
How it was run: (§1)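 384-well plates were pre-loaded with compound in 5 µl medium before 20 µl of breast cancer cell suspension was seeded. Following 72 h incubation, 2.5 µl CellTiter-Blue reagent was added for 2 h at 37 °C. Fluorescence was read at 560/590 nm and plates were normalised to vehicle (100) and a positive kill control (0), checked by Z'-factor. Normalised viability is reported at a single listed concentration of the series.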

BT-549 = assay: as above; details: incubation time: 72 h
How it was run: as §1

CAL-120 = assay: as above; details: incubation time: 72 h
How it was run: as §1

CAL-148 = assay: as above; details: incubation time: 72 h
How it was run: as §1

CAL-51 = assay: as above; details: incubation time: 72 h
How it was run: as §1

CAL-85-1 = assay: as above; details: incubation time: 72 h
How it was run: as §1

DU-4475 = assay: as above; details: incubation time: 72 h
How it was run: as §1

HCC1143 = assay: as above; details: incubation time: 72 h
How it was run: as §1

HCC1599 = assay: as above; details: incubation time: 72 h
How it was run: as §1

HCC1937 = assay: as above; details: incubation time: 72 h
How it was run: as §1

HDQ-P1 = assay: as above; details: incubation time: 72 h
How it was run: as §1

Hs578T = assay: as above; details: incubation time: 72 h
How it was run: as §1

MDA-MB-231 = assay: as above; details: incubation time: 72 h
How it was run: as §1

MDA-MB-436 = assay: as above; details: incubation time: 72 h
How it was run: as §1

MDA-MB-453 = assay: as above; details: incubation time: 72 h
How it was run: as §1

MDA-MB-468 [2] = assay: as above; details: incubation time: 72 h
How it was run: as §1

MFM-223 = assay: as above; details: incubation time: 72 h
How it was run: as §1

SK-BR-3 = assay: as above; details: incubation time: 72 h
How it was run: as §1

O=C(Nc1ccncc1)C(=O)c1cn(Cc2ccc(Cl)cc2)c2ccccc12 [Indibulin] was tested, and the “EC50, CellTiter-Glo” value (MDA-MB-468 [1]) was 273 nM, the normalised viability (BT-474; 10 nM) was 99.9% and the normalised viability (BT-474; 1000 nM) was 47.2%. It also gave a normalised viability (BT-474; 10000 nM) of 39.2%, a normalised viability (BT-549; 10 nM) of 103% and a normalised viability (BT-549; 1000 nM) of 31.4%. The normalised viability (BT-549; 10000 nM) was 23.5%, the normalised viability (CAL-120; 10 nM) was 85.7% and the normalised viability (CAL-120; 1000 nM) was 35.9%. For the same compound, the normalised viability (CAL-120; 10000 nM) was 28.1%, the normalised viability (CAL-148; 3 nM) was 95.4% and the normalised viability (CAL-148; 30 nM) was 92.1%. For the same compound, the normalised viability (CAL-148; 100 nM) was 94.5%, the normalised viability (CAL-51; 3 nM) was 106% and the normalised viability (CAL-51; 30 nM) was 104%. For the same compound, the normalised viability (CAL-51; 100 nM) was 102%, the normalised viability (CAL-85-1; 3 nM) was 102% and the normalised viability (CAL-85-1; 30 nM) was 91.3%. It also gave a normalised viability (CAL-85-1; 100 nM) of 95%, a normalised viability (DU-4475; 3 nM) of 111% and a normalised viability (DU-4475; 30 nM) of 93.7%. It also gave a normalised viability (DU-4475; 100 nM) of 123%, a normalised viability (HCC1143; 10 nM) of 80.7% and a normalised viability (HCC1143; 1000 nM) of 41.1%. The normalised viability (HCC1143; 10000 nM) was 41%, the normalised viability (HCC1599; 10 nM) was 113% and the normalised viability (HCC1599; 1000 nM) was 124%. It also gave a normalised viability (HCC1599; 10000 nM) of 103%, a normalised viability (HCC1937; 10 nM) of 74.5% and a normalised viability (HCC1937; 1000 nM) of 21.1%. For the same compound, the normalised viability (HCC1937; 10000 nM) was 23.1%, the normalised viability (HDQ-P1; 3 nM) was 90.5% and the normalised viability (HDQ-P1; 30 nM) was 87.7%. For the same compound, the normalised viability (HDQ-P1; 100 nM) was 74.8%, the normalised viability (Hs578T; 10 nM) was 110% and the normalised viability (Hs578T; 1000 nM) was 56.3%. For the same compound, the normalised viability (Hs578T; 10000 nM) was 18.5%, the normalised viability (MDA-MB-231; 10 nM) was 103% and the normalised viability (MDA-MB-231; 1000 nM) was 20.3%. The normalised viability (MDA-MB-231; 10000 nM) was 16.1%, the normalised viability (MDA-MB-436; 10 nM) was 111% and the normalised viability (MDA-MB-436; 1000 nM) was 41.4%. For the same compound, the normalised viability (MDA-MB-436; 10000 nM) was 66.3%, the normalised viability (MDA-MB-453; 3 nM) was 97.2% and the normalised viability (MDA-MB-453; 30 nM) was 61.7%. It also gave a normalised viability (MDA-MB-453; 100 nM) of 65.5%, a normalised viability (MDA-MB-468 [2]; 10 nM) of 95.7% and a normalised viability (MDA-MB-468 [2]; 1000 nM) of 49.8%. It also gave a normalised viability (MDA-MB-468 [2]; 10000 nM) of 36.7%, a normalised viability (MFM-223; 10 nM) of 112% and a normalised viability (MFM-223; 1000 nM) of 63.7%. The normalised viability (MFM-223; 10000 nM) was 68.5%, the normalised viability (SK-BR-3; 10 nM) was 94.5% and the normalised viability (SK-BR-3; 1000 nM) was 19.9%. The normalised viability (SK-BR-3; 10000 nM) was 20.6%.
For NC(=O)c1ccc(I)c([N+](=O)[O-])c1 [Iniparib], the “EC50, CellTiter-Glo” value (MDA-MB-468 [1]) was 230 nM, the normalised viability (BT-474; 10 nM) was 95.2% and the normalised viability (BT-474; 1000 nM) was 106%. For the same compound, the normalised viability (BT-474; 10000 nM) was 96.6%, the normalised viability (BT-549; 10 nM) was 104% and the normalised viability (BT-549; 1000 nM) was 112%. It also gave a normalised viability (BT-549; 10000 nM) of 116%, a normalised viability (CAL-120; 10 nM) of 87.3% and a normalised viability (CAL-120; 1000 nM) of 98.6%. It also gave a normalised viability (CAL-120; 10000 nM) of 72.7%, a normalised viability (CAL-148; 3 nM) of 85.6% and a normalised viability (CAL-148; 30 nM) of 92.8%. For the same compound, the normalised viability (CAL-148; 100 nM) was 90.2%, the normalised viability (CAL-51; 3 nM) was 92.6% and the normalised viability (CAL-51; 30 nM) was 92.9%. It also gave a normalised viability (CAL-51; 100 nM) of 96.4%, a normalised viability (CAL-85-1; 3 nM) of 91.5% and a normalised viability (CAL-85-1; 30 nM) of 83.8%. The normalised viability (CAL-85-1; 100 nM) was 89.5%, the normalised viability (DU-4475; 3 nM) was 84.1% and the normalised viability (DU-4475; 30 nM) was 73.9%. For the same compound, the normalised viability (DU-4475; 100 nM) was 98.8%, the normalised viability (HCC1143; 10 nM) was 93.6% and the normalised viability (HCC1143; 1000 nM) was 102%. For the same compound, the normalised viability (HCC1143; 10000 nM) was 91.3%, the normalised viability (HCC1599; 10 nM) was 88.3% and the normalised viability (HCC1599; 1000 nM) was 88.3%. The normalised viability (HCC1599; 10000 nM) was 89.8%, the normalised viability (HCC1937; 10 nM) was 86% and the normalised viability (HCC1937; 1000 nM) was 97.4%. For the same compound, the normalised viability (HCC1937; 10000 nM) was 97.6%, the normalised viability (HDQ-P1; 3 nM) was 99.3% and the normalised viability (HDQ-P1; 30 nM) was 104%. It also gave a normalised viability (HDQ-P1; 100 nM) of 111%, a normalised viability (Hs578T; 10 nM) of 115% and a normalised viability (Hs578T; 1000 nM) of 108%. It also gave a normalised viability (Hs578T; 10000 nM) of 109%, a normalised viability (MDA-MB-231; 10 nM) of 88.1% and a normalised viability (MDA-MB-231; 1000 nM) of 89.6%. It also gave a normalised viability (MDA-MB-231; 10000 nM) of 111%, a normalised viability (MDA-MB-436; 10 nM) of 104% and a normalised viability (MDA-MB-436; 1000 nM) of 116%. The normalised viability (MDA-MB-436; 10000 nM) was 109%, the normalised viability (MDA-MB-453; 3 nM) was 91.7% and the normalised viability (MDA-MB-453; 30 nM) was 94.7%. For the same compound, the normalised viability (MDA-MB-453; 100 nM) was 99.9%, the normalised viability (MDA-MB-468 [2]; 10 nM) was 97.9% and the normalised viability (MDA-MB-468 [2]; 1000 nM) was 107%. It also gave a normalised viability (MDA-MB-468 [2]; 10000 nM) of 91.6%, a normalised viability (MFM-223; 10 nM) of 93.9% and a normalised viability (MFM-223; 1000 nM) of 99%. For the same compound, the normalised viability (MFM-223; 10000 nM) was 95.4%, the normalised viability (SK-BR-3; 10 nM) was 89.7% and the normalised viability (SK-BR-3; 1000 nM) was 104%. The normalised viability (SK-BR-3; 10000 nM) was 91.5%.
